Experimental data published in PubChem BioAssay AID2060485 (Molecular Pharmacology Branch, DTP, NCI, 2025).
pIC50: −log10 of the molar value.

System: A375 multi-cell spheroids with HUVEC/MSC, viability
Assay: Anticancer human tumor A375 cell line growth inhibition [GQUAD];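 note: spheroids exposed to compounds for seven days before readout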
Details: for pIC50: curve of first compound; for viability, T/C: stronger effect = lower value; active = viability on the fitted dose curve at most 10% of control; inactive = the rest
In short: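 Viability of tumor cells grown as complex spheroids with endothelial and stromal cells, exposed to drug combinations. Top concentration at or near clinical Cmax (else 10 microM), diluted in half-log increments.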

[1] = second compound 0.0316 µM, first compound 0.0316 µM
[2] = second compound 0.0316 µM, first compound 0.316 µM
[3] = second compound 0.1 µM, first compound 0.0316 µM
[4] = second compound 0.1 µM, first compound 0.316 µM
[5] = second compound 0.316 µM, first compound 0.0316 µM
[6] = second compound 0.316 µM, first compound 0.316 µM
[7] = second compound 1 µM, first compound 0.0316 µM
[8] = second compound 1 µM, first compound 0.316 µM
[9] = second compound 3.16 µM, first compound 0.0316 µM
[10] = second compound 3.16 µM, first compound 0.316 µM
[11] = second compound 10 µM, first compound 0.0316 µM
[12] = second compound 10 µM, first compound 0.316 µM
[13] = second compound 0.0316 µM, first compound 0.1 µM
[14] = second compound 0.0316 µM, first compound 1 µM
[15] = second compound 0.0316 µM, first compound 3.16 µM
[16] = second compound 0.0316 µM, first compound 10 µM
[17] = second compound 0.1 µM, first compound 0.1 µM
[18] = second compound 0.1 µM, first compound 1 µM
[19] = second compound 0.1 µM, first compound 3.16 µM
[20] = second compound 0.1 µM, first compound 10 µM
[21] = second compound 0.316 µM, first compound 0.1 µM
[22] = second compound 0.316 µM, first compound 1 µM
[23] = second compound 0.316 µM, first compound 3.16 µM
[24] = second compound 0.316 µM, first compound 10 µM
[25] = second compound 1 µM, first compound 0.1 µM
[26] = second compound 1 µM, first compound 1 µM
[27] = second compound 1 µM, first compound 3.16 µM
[28] = second compound 1 µM, first compound 10 µM
[29] = second compound 3.16 µM, first compound 0.1 µM
[30] = second compound 3.16 µM, first compound 1 µM
[31] = second compound 3.16 µM, first compound 3.16 µM
[32] = second compound 3.16 µM, first compound 10 µM
[33] = second compound 10 µM, first compound 0.1 µM
[34] = second compound 10 µM, first compound 1 µM
[35] = second compound 10 µM, first compound 3.16 µM
[36] = second compound 10 µM, first compound 10 µM

Cc1[nH]c2ccccc2c1CCNCc1ccc(/C=C/C(=O)NO)cc1 + Cc1cnc(CNC(=O)c2c(=O)c3ccc(N4CCCN(C)CC4)nc3n3c2sc2ccccc23)cn1
6.95: pIC50 (second compound 0.0316 µM)
7.31: pIC50 (second compound 0.1 µM)
active: viability, T/C [4] 8.85% | viability, T/C [6] 8.14% | viability, T/C [8] 1.63% | viability, T/C [10] 0.08% | viability, T/C [12] 0.14%
7.44: pIC50 (second compound 0.316 µM)
> 9.00: pIC50 (second compound 1 µM) | pIC50 (second compound 3.16 µM) | pIC50 (second compound 10 µM)
inactive: viability, T/C (second compound 0.0316 µM, first compound 0.000999 µM) 98.2% | viability, T/C (second compound 0.0316 µM, first compound 0.00316 µM) 103% | viability, T/C (second compound 0.0316 µM, first compound 0.00999 µM) 123% | viability, T/C [1] 113% | viability, T/C (second compound 0.0316 µM, first compound 0.0999 µM) 54.4% | viability, T/C [2] 10.3% | viability, T/C (second compound 0.1 µM, first compound 0.000999 µM) 74.6% | viability, T/C (second compound 0.1 µM, first compound 0.00316 µM) 69.7% | viability, T/C (second compound 0.1 µM, first compound 0.00999 µM) 74% | viability, T/C [3] 60.5% | viability, T/C (second compound 0.1 µM, first compound 0.0999 µM) 31.7% | viability, T/C (second compound 0.316 µM, first compound 0.000999 µM) 54.1% | viability, T/C (second compound 0.316 µM, first compound 0.00316 µM) 55.5% | viability, T/C (second compound 0.316 µM, first compound 0.00999 µM) 49% | viability, T/C [5] 53.9% | viability, T/C (second compound 0.316 µM, first compound 0.0999 µM) 25.2% | viability, T/C (second compound 1 µM, first compound 0.000999 µM) 37.2% | viability, T/C (second compound 1 µM, first compound 0.00316 µM) 42.2% | viability, T/C (second compound 1 µM, first compound 0.00999 µM) 39.4% | viability, T/C [7] 35.4% | viability, T/C (second compound 1 µM, first compound 0.0999 µM) 18.7% | viability, T/C (second compound 3.16 µM, first compound 0.000999 µM) 35.6% | viability, T/C (second compound 3.16 µM, first compound 0.00316 µM) 30.9% | viability, T/C (second compound 3.16 µM, first compound 0.00999 µM) 35.5% | viability, T/C [9] 34.1% | viability, T/C (second compound 3.16 µM, first compound 0.0999 µM) 13.6% | viability, T/C (second compound 10 µM, first compound 0.000999 µM) 30.9% | viability, T/C (second compound 10 µM, first compound 0.00316 µM) 25.6% | viability, T/C (second compound 10 µM, first compound 0.00999 µM) 29.1% | viability, T/C [11] 25% | viability, T/C (second compound 10 µM, first compound 0.0999 µM) 8.95%

Nc1ccn(C2OC(CO)C(O)C2(F)F)c(=O)n1 (stereo not drawn) + Cc1cnc(CNC(=O)c2c(=O)c3ccc(N4CCCN(C)CC4)nc3n3c2sc2ccccc23)cn1
> 7.50: pIC50 (second compound 0.0316 µM) | pIC50 (second compound 0.1 µM) | pIC50 (second compound 0.316 µM) | pIC50 (second compound 1 µM) | pIC50 (second compound 3.16 µM) | pIC50 (second compound 10 µM)
inactive: viability, T/C [1] 22.9% | viability, T/C [13] 10.1% | viability, T/C [3] 23.4% | viability, T/C [17] 10.8% | viability, T/C [5] 22.3% | viability, T/C [21] 12.7% | viability, T/C [6] 9.56% | viability, T/C [7] 28.3% | viability, T/C [25] 14.9% | viability, T/C [8] 13.3% | viability, T/C [26] 13.8% | viability, T/C [27] 12.5% | viability, T/C [28] 7.97% | viability, T/C [9] 29% | viability, T/C [29] 20.9% | viability, T/C [10] 18.9% | viability, T/C [30] 14.1% | viability, T/C [31] 11.8% | viability, T/C [11] 24.9% | viability, T/C [33] 22.1% | viability, T/C [12] 19.1% | viability, T/C [34] 14.6%
active: viability, T/C [2] 10.4% | viability, T/C [14] 10.4% | viability, T/C [15] 8.9% | viability, T/C [16] 7.49% | viability, T/C [4] 9.94% | viability, T/C [18] 10.3% | viability, T/C [19] 9.17% | viability, T/C [20] 7.13% | viability, T/C [22] 11.4% | viability, T/C [23] 10% | viability, T/C [24] 7.6% | viability, T/C [32] 6.29% | viability, T/C [35] 10.9% | viability, T/C [36] 2.89%

O=C(NO)c1cnc(N2CCN(S(=O)(=O)c3ccc4ccccc4c3)CC2)nc1 + Cc1cnc(CNC(=O)c2c(=O)c3ccc(N4CCCN(C)CC4)nc3n3c2sc2ccccc23)cn1
> 7.50: pIC50 (second compound 1 µM) | pIC50 (second compound 3.16 µM) | pIC50 (second compound 10 µM)
inactive: viability, T/C [1] 115% | viability, T/C [13] 124% | viability, T/C [2] 11.9% | viability, T/C [3] 75.2% | viability, T/C [17] 59.1% | viability, T/C [4] 10.8% | viability, T/C [5] 64.1% | viability, T/C [21] 53.2% | viability, T/C [7] 44.6% | viability, T/C [25] 36.8% | viability, T/C [9] 32.8% | viability, T/C [29] 23.3% | viability, T/C [11] 28.5% | viability, T/C [33] 22.6%
6.68: pIC50 (second compound 0.0316 µM)
6.91: pIC50 (second compound 0.1 µM)
active: viability, T/C [14] 0.22% | viability, T/C [15] 0.16% | viability, T/C [16] 0.19% | viability, T/C [18] 0.18% | viability, T/C [19] 0.13% | viability, T/C [20] 0.17% | viability, T/C [6] 9.31% | viability, T/C [22] 0.13% | viability, T/C [23] 0.11% | viability, T/C [24] 0.14% | viability, T/C [8] 0.9% | viability, T/C [26] 0.11% | viability, T/C [27] 0.09% | viability, T/C [28] 0.12% | viability, T/C [10] 0.17% | viability, T/C [30] 0.11% | viability, T/C [31] 0.11% | viability, T/C [32] 0.15% | viability, T/C [12] 0.2% | viability, T/C [34] 0.12% | viability, T/C [35] 0.18% | viability, T/C [36] 0.21%
6.96: pIC50 (second compound 0.316 µM)

O=c1[nH]cc(F)c(=O)[nH]1 + Cc1cnc(CNC(=O)c2c(=O)c3ccc(N4CCCN(C)CC4)nc3n3c2sc2ccccc23)cn1
6.17: pIC50 (second compound 0.316 µM)
> 7.50: pIC50 (second compound 1 µM) | pIC50 (second compound 3.16 µM) | pIC50 (second compound 10 µM)
< 5.00: pIC50 (second compound 0.0316 µM) | pIC50 (second compound 0.1 µM)
inactive: viability, T/C [1] 98.5% | viability, T/C [13] 105% | viability, T/C [2] 92.4% | viability, T/C [14] 107% | viability, T/C [15] 112% | viability, T/C [16] 96.5% | viability, T/C [3] 75.9% | viability, T/C [17] 67.8% | viability, T/C [4] 82.8% | viability, T/C [18] 81.4% | viability, T/C [19] 88.7% | viability, T/C [20] 63.1% | viability, T/C [5] 56.8% | viability, T/C [21] 51.4% | viability, T/C [6] 50.7% | viability, T/C [22] 49.4% | viability, T/C [23] 48.6% | viability, T/C [24] 45.3% | viability, T/C [7] 44.9% | viability, T/C [25] 41.3% | viability, T/C [8] 47.6% | viability, T/C [26] 51.7% | viability, T/C [27] 45.8% | viability, T/C [28] 37.7% | viability, T/C [9] 40.3% | viability, T/C [29] 33.4% | viability, T/C [10] 34.6% | viability, T/C [30] 36% | viability, T/C [31] 39% | viability, T/C [32] 30.7% | viability, T/C [11] 37.3% | viability, T/C [33] 30% | viability, T/C [12] 32.6% | viability, T/C [34] 33.9% | viability, T/C [35] 30.3% | viability, T/C [36] 29.4%
